Test results reported in patent publication US8981087B2, “Benzo [E] [1,3] oxazin-4-one derivatives as phosphoinositide 3-kinase inhibitors” (Karus Therapeutics Limited, priority 2009, dated 2015).
Read-outs that look alike come from different tables or passages of the source.

Assays:
PI3K-p110β = PI3K-p110β (Homo sapiens, UniProt P42338); assay: Biochemical PI3K-p110β inhibition
PI3K-p110γ = PI3K-p110γ (Homo sapiens, UniProt P48736); assay: Biochemical PI3K-p110γ inhibition
PI3K-p110 α = PI3K-p110 α (Homo sapiens, UniProt P42336); assay: Biochemical PI3K-p110α inhibition
PI3K-p110 α, sequence (P42336 whole entry): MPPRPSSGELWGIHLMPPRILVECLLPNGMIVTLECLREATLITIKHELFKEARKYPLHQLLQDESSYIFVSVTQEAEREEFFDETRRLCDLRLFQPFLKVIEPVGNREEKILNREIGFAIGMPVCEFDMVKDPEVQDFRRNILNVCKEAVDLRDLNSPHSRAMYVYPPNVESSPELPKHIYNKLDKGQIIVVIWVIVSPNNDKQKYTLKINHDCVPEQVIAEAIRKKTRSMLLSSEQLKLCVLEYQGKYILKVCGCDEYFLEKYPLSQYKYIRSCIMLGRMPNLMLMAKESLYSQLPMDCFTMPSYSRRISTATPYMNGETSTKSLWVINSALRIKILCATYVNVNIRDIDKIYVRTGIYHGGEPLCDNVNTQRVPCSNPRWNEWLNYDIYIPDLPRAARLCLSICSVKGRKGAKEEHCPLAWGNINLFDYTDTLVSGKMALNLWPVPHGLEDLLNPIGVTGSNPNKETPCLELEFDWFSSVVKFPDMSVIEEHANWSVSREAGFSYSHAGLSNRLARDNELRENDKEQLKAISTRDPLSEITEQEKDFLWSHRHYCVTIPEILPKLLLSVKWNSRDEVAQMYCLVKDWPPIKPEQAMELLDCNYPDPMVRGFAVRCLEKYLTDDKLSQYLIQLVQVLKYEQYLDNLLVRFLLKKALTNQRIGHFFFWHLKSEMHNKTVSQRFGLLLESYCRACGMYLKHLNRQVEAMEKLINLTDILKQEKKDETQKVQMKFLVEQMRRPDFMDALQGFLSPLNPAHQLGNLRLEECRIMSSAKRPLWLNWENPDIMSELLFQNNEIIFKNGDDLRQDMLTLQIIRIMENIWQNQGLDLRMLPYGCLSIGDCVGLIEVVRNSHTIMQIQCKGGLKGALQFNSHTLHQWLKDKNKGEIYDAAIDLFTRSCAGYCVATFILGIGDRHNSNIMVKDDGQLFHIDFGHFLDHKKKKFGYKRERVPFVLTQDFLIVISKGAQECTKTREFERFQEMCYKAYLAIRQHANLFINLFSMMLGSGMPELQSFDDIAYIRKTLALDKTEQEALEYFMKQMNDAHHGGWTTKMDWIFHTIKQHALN
PI3K-p110 α, sequence (P27986 whole entry partner): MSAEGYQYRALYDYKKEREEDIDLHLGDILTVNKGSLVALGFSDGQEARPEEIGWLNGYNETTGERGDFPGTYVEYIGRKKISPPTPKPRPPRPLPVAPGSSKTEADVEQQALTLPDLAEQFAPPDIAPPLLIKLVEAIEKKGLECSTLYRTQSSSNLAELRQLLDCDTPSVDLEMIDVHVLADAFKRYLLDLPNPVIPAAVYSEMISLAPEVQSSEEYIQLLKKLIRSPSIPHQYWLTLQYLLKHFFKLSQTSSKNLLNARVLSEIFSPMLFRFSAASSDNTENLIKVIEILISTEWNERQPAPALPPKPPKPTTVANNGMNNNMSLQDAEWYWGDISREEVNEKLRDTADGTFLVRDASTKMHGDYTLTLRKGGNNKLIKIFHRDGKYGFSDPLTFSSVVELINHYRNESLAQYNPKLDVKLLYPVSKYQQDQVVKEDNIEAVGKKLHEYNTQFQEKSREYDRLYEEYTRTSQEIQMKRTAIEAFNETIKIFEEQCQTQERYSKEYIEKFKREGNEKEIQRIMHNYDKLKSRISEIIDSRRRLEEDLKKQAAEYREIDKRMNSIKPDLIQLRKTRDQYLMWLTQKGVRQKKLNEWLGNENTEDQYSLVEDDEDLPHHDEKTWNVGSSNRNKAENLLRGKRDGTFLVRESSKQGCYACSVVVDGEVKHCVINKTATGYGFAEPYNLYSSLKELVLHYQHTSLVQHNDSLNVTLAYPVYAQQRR

PI3K-p110δ = PI3K-p110δ (Homo sapiens, UniProt O00329); assay: Biochemical PI3K-p110δ inhibition
PI3K-p110δ, sequence (O00329 whole entry): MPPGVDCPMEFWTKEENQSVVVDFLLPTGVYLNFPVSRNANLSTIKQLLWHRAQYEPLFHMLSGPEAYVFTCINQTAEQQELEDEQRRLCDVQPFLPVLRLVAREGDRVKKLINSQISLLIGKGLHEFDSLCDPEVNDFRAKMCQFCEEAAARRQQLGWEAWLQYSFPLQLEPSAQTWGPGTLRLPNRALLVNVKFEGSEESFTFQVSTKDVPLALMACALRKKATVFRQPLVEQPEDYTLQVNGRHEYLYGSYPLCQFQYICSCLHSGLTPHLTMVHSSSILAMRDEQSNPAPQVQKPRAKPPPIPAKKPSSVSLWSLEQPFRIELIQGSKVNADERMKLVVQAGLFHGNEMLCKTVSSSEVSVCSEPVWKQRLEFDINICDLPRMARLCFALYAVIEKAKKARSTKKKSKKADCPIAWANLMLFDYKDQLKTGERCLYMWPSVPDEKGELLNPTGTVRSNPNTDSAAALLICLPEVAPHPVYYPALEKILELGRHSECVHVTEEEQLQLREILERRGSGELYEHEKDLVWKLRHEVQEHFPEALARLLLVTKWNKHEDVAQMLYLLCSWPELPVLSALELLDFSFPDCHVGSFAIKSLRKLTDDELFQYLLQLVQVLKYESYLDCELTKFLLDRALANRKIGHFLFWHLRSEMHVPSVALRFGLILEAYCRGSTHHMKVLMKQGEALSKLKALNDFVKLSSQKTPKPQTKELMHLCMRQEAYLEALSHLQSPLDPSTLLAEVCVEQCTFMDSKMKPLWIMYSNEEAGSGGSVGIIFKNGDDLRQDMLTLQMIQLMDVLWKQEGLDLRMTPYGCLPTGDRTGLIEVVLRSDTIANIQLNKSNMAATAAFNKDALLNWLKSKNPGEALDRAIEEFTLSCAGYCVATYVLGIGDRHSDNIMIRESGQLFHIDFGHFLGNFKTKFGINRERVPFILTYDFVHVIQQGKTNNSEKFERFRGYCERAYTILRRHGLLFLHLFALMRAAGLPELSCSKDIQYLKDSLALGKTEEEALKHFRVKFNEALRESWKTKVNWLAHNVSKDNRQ
PI3K-p110δ, sequence (P27986 whole entry partner): as the sequence (P27986 whole entry partner) above

PI3K-p110β, sequence (P42338 whole entry): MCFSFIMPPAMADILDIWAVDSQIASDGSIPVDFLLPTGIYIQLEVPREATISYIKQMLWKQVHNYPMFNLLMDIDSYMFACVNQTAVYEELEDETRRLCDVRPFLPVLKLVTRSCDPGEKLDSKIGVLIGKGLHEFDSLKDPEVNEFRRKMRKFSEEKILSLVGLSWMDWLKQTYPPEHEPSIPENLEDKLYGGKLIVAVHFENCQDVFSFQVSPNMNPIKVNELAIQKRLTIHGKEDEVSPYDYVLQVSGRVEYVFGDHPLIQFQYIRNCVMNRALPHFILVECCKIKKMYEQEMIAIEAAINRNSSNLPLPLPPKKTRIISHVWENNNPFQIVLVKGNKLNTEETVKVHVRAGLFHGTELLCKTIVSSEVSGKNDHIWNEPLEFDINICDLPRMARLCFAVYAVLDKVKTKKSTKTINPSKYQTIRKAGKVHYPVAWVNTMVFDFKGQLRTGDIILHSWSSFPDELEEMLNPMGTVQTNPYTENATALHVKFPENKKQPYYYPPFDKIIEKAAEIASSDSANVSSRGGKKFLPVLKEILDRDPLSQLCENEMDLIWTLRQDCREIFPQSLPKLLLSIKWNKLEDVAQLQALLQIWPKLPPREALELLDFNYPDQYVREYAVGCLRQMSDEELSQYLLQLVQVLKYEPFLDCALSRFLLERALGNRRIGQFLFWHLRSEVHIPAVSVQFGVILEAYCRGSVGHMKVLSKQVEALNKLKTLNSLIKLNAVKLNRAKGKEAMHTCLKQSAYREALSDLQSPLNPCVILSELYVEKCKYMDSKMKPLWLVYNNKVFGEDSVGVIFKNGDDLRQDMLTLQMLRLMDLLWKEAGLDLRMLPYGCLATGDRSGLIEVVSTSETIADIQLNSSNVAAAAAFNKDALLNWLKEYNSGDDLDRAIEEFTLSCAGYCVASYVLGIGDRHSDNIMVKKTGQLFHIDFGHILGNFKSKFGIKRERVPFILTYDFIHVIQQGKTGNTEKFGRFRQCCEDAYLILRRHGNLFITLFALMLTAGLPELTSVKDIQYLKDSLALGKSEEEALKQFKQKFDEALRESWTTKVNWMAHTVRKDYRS
PI3K-p110β, sequence (P27986 whole entry partner): as the sequence (P27986 whole entry partner) above
PI3K-p110γ, sequence (P48736 whole entry): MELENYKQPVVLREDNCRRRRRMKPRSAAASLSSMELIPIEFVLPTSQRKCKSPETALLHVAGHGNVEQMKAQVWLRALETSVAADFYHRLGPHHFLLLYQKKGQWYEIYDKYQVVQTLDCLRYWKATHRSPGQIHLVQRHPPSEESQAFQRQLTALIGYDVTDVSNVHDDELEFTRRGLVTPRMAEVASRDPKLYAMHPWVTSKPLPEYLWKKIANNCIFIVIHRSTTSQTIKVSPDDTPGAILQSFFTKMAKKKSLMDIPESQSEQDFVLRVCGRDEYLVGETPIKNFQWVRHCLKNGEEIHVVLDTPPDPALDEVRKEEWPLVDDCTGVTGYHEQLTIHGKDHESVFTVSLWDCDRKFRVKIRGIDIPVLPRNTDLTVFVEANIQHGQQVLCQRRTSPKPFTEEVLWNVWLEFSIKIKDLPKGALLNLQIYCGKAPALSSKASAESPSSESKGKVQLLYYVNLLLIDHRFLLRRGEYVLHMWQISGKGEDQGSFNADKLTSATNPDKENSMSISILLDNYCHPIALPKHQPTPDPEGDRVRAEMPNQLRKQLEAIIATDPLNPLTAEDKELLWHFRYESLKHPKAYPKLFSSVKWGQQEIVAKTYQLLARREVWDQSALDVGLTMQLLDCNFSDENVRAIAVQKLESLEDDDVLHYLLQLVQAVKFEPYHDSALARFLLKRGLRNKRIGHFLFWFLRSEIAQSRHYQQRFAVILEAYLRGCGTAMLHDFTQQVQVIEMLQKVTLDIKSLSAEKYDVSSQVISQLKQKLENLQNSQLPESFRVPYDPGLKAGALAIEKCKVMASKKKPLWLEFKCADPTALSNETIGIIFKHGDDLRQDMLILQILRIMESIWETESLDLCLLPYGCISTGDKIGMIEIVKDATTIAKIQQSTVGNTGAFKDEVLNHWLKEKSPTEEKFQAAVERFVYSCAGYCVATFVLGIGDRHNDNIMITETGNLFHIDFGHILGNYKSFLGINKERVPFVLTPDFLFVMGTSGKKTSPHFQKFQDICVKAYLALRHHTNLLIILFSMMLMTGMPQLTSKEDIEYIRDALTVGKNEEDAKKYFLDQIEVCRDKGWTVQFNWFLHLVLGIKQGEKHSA

| IC50 (PI3K-p110β; Class IA enzyme, read-out: IC50 PI3K-p110β (uM) (Class IA Enzyme)) | IC50 (PI3K-p110γ; Class IB enzyme, read-out: IC50 PI3K-p110γ (uM) (Class IB Enzyme)) | SMILES | class IA/IB PI3K selectivity (PI3K-p110β; compared with industry-standard inhibitor LY294002, p110β vs p110γ) | IC50 (PI3K-p110β; read-out: IC50 PI3K-p110β) | selectivity for PI3K-p110β (PI3K-p110β; versus p110α, p110δ, p110γ) | IC50 (PI3K-p110 α) | IC50 (PI3K-p110δ) | IC50 (PI3K-p110γ; read-out: IC50 PI3K-p110γ) |
| --- | --- | --- | --- | --- | --- | --- | --- | --- |
| 2.34 µM | 20.5 µM | Nc1ccc(-c2cccc3c(=O)nc(N4CCOCC4)oc23)cc1 [Compound A, 8-(4-aminophenyl)-2-morpholino-4H-benzo[e][1,3]oxazin-4-one] | greater class IA/IB PI3K selectivity compared with industry-standard inhibitor, LY294002 |  |  |  |  |  |
|  |  | Nc1ccc(-c2cccc3c(=O)nc(N4CCOCC4)oc23)c(F)c1 [Compound B, 8-(4-Amino-2-fluoro-phenyl)-2-morpholin-4-yl-benzo[e][1,3]oxazin-4-one] |  | 0.538 µM | displays selectivity for PI3K-p110β | 3.41 µM | 1.69 µM | 17.8 µM |
